Experimental data taken from patent publication US7058616B1, “Method and system for predicting resistance of a disease to a therapeutic agent using a neural network” (Virco Bvba, priority 2000, dated 2006).

Assays:
[1] = tested on: HIV-1; assay: MT-4 cell viral cytopathic effect protection assay, phenotypic susceptibility of patient recombinant virus; assay type: cell-based
Procedure: Phenotypic susceptibility was determined using a MT-4 cell viral cytopathic effect protection assay. See, e.g., Kashiwase et al., Chemotherapy 45(1):48–55 (1999), expressly incorporated herein by reference; Larder et al., Antimicrob. Agents Chemother. 43(8):1961–1967 (1999).

[2] = tested on: HIV-1; settings: in vitro; cited from earlier work

Structure (SMILES): CC(C)CN(C[C@@H](O)[C@H](Cc1ccccc1)NC(=O)O[C@H]1CCOC1)S(=O)(=O)c1ccc(N)cc1 [VX-478]
- actual phenotype resistance level ([1]; PI test sample 1): S/S (A fold resistance of less than or equal to 4 is considered to be ‘sensitive’)
- actual phenotype resistance level ([1]; PI test sample 2): S/S (A fold resistance of less than or equal to 4 is considered to be ‘sensitive’)
- actual phenotype resistance level ([1]; PI test sample 3): S/S (A fold resistance of less than or equal to 4 is considered to be ‘sensitive’)
- actual phenotype resistance level ([1]; PI test sample 4): I/I (greater than 4 and less than 10 is considered to be ‘intermediate’)
- actual phenotype resistance level ([1]; PI test sample 6): S/S (A fold resistance of less than or equal to 4 is considered to be ‘sensitive’)
- actual phenotype resistance level ([1]; PI test sample 7): S/S (A fold resistance of less than or equal to 4 is considered to be ‘sensitive’)
- actual phenotype resistance level ([1]; PI test sample 8): S/S (A fold resistance of less than or equal to 4 is considered to be ‘sensitive’)
- actual phenotype resistance level ([1]; PI test sample 9): S/S (A fold resistance of less than or equal to 4 is considered to be ‘sensitive’)
- actual phenotype resistance level ([1]; PI test sample 10): S/S (A fold resistance of less than or equal to 4 is considered to be ‘sensitive’)
- actual phenotype resistance level ([1]; PI test sample 11): S/S (A fold resistance of less than or equal to 4 is considered to be ‘sensitive’)
- actual phenotype resistance level ([1]; PI test sample 12): S/S (A fold resistance of less than or equal to 4 is considered to be ‘sensitive’)
- actual phenotype resistance level ([1]; PI test sample 13): I/I (greater than 4 and less than 10 is considered to be ‘intermediate’)
- actual phenotype resistance level ([1]; PI test sample 14): S/S (A fold resistance of less than or equal to 4 is considered to be ‘sensitive’)
- actual phenotype resistance level ([1]; PI test sample 15): S/S (A fold resistance of less than or equal to 4 is considered to be ‘sensitive’)
- actual phenotype resistance level ([1]; PI test sample 16): R/R (if the value is greater than 10, it is considered to be ‘resistant’)
- actual phenotype resistance level ([1]; PI test sample 18): S/S (A fold resistance of less than or equal to 4 is considered to be ‘sensitive’)
- actual phenotype resistance level ([1]; PI test sample 19): S/S (A fold resistance of less than or equal to 4 is considered to be ‘sensitive’)
- actual phenotype resistance level ([1]; PI test sample 20): S/S (A fold resistance of less than or equal to 4 is considered to be ‘sensitive’)
- actual phenotype resistance level ([1]; PI test sample 21): S/S (A fold resistance of less than or equal to 4 is considered to be ‘sensitive’)
- actual phenotype resistance level ([1]; PI test sample 22): S/S (A fold resistance of less than or equal to 4 is considered to be ‘sensitive’)
- actual phenotype resistance level ([1]; PI test sample 23, listed as Amprenavir): R/R (if the value is greater than 10, it is considered to be ‘resistant’)
- actual phenotype resistance level ([1]; PI test sample 24): R/R (if the value is greater than 10, it is considered to be ‘resistant’)
- actual phenotype resistance level ([1]; PI test sample 26): S/S (A fold resistance of less than or equal to 4 is considered to be ‘sensitive’)
- actual phenotype resistance level ([1]; PI test sample 30): I/I (greater than 4 and less than 10 is considered to be ‘intermediate’)
- actual phenotype resistance level ([1]; PI test sample 31, listed as Amprenavir): R/R (if the value is greater than 10, it is considered to be ‘resistant’)
- actual phenotype resistance level ([1]; PI test sample 36, listed as APV): I/I (greater than 4 and less than 10 is considered to be ‘intermediate’)
- actual phenotype resistance level ([1]; PI test sample 38, listed as Amprenavir): I/I (greater than 4 and less than 10 is considered to be ‘intermediate’)
- actual phenotype resistance level ([1]; PI test sample 39): I/I (greater than 4 and less than 10 is considered to be ‘intermediate’)
- actual phenotype resistance level ([1]; PI test sample 44): I/I (greater than 4 and less than 10 is considered to be ‘intermediate’)
- actual phenotype resistance level ([1]; PI test sample 46): I/I (greater than 4 and less than 10 is considered to be ‘intermediate’)
- actual phenotype resistance level ([1]; PI test sample 49): I/I (greater than 4 and less than 10 is considered to be ‘intermediate’)
- actual phenotype resistance level ([1]; Table 3 testing sample 1): S/S (A fold resistance of less than or equal to 4 is considered to be “sensitive,”)
- actual phenotype resistance level ([1]; Table 3 testing sample 2): S (A fold resistance of less than or equal to 4 is considered to be “sensitive,”)
- actual phenotype resistance level ([1]; Table 3 testing sample 3): S/S (A fold resistance of less than or equal to 4 is considered to be “sensitive,”)
- actual phenotype resistance level ([1]; Table 3 testing sample 6): S/S (A fold resistance of less than or equal to 4 is considered to be “sensitive,”)
- actual phenotype resistance level ([1]; Table 3 testing sample 7): S/S (A fold resistance of less than or equal to 4 is considered to be “sensitive,”)
- actual phenotype resistance level ([1]; Table 3 testing sample 8): S/S (A fold resistance of less than or equal to 4 is considered to be “sensitive,”)
- actual phenotype resistance level ([1]; Table 3 testing sample 9): S/S (A fold resistance of less than or equal to 4 is considered to be “sensitive,”)
- actual phenotype resistance level ([1]; Table 3 testing sample 10): S/S (A fold resistance of less than or equal to 4 is considered to be “sensitive,”)
- actual phenotype ([1]; Table 13/14 sample 4: 10I,46I,71V,77I,84V,90M, 63P,93L): S (A fold resistance of less than or equal to 4 is considered to be ‘sensitive’)
- actual phenotype ([1]; Table 13/14 sample 12: 10I,36I,46I,84V,90M, 20I,63P,73C,85V): R (if the value is greater than 10, it is considered to be ‘resistant’)
- actual phenotype ([1]; Table 13/14 sample 15: 46I,84V,90M, 20I,63Q): I (greater than 4 and less than 10 is considered to be ‘intermediate’)
- actual phenotype ([1]; Table 13/14 sample 16: 10I,46I,77I,84V,90M, 63P,73T,93L): S (A fold resistance of less than or equal to 4 is considered to be ‘sensitive’)
- actual phenotype ([1]; Table 13/14 sample 22: 10I,20R,36I,71V,73S,84V,90M, 13V,63P): I (greater than 4 and less than 10 is considered to be ‘intermediate’)
- actual phenotype ([1]; Table 13/14 sample 23: 10I,46I,77I,90M, 20I,63P,73T): S (A fold resistance of less than or equal to 4 is considered to be ‘sensitive’)
- Effect of N88S mutation on susceptibility [2]: in vitro hypersensitivity
